According to patent US5006545A, “Veterinary compositions against endoparasites containing cypermethrin and albendazole” (priority 1988, dated 1991):

Tests used:
[1] = test system: Musca domestica WHO/SRS (L3 larvas); test: hatching of imagos from L3 fly larvas on treated nutriment; format: in vivo; details: 12 days
Source text: (§1) For this purpose the activity of several pyrethroid insecticides has been tested per se or in combination with different benzimidazole type anthelmintics on flies (Musca domestica). […] This synergistic interaction was shown not only in the decrease of the therapeutical concentrations but also on the activity of the sublethal doses to the development. The body mass of the larvas is decreased and from the little aurelias evolved during the long development often deformed imagos, unsuitable for further multiplication were hatched out. Above all the synergistic interaction has made possible the decrease of the therapeutic dose of the orally administered insecticide.
(§2) For examining the interaction between benzimidazoles and pyrethroids the larvas of domestic flies in L3 status (Musca domestica WHO/SRS) were used as model organism.
(§3) A nutriment suitable for breeding fly larvas was prepared from yeast, milk, bran and water and the nutriment was portioned into plastic glasses. Acetonic strain solution was prepared from the active ingredients and after dilution the amounts necessary for achieving the desired active ingredient concentrations were added to the nutriment in the plastic glasses.
The examinations were carried out with total active ingredient concentrations of 1, 5, 10, 50, 100 and 200 ppm in 6 parallel tests per each concentration. Into the plastic glasses containing the treated culture medium 20--20 domestic fly-larvas of L3 status were placed after mass measurement. The glasses were covered by gauze and after 12 days the hatched imagos were counted. In the control containing only solvent the hatching ratio was 91%, the average weight of the hatched flies was 18.2 mg.

[2] = test system: Musca domestica (L3 larvas); test: average body mass and hatching % of fly larvas/imagos after treatment; format: in vivo
Source text: as §1, §2, §3
Fly larvas of L3 status were grown in identical manner as in an Example 1, on a nutriment having a total active ingredient concentration of 5 and 10 ppm.

[3] = acute per os toxicity (LD50), measured on rats; format: in vivo, rat; details: rat, in vivo, po
Source text: (§4) The therapeutic indexes of current anthelmintics and transmix each having insecticidal activity and suitable for per os administration are shown in Table 1.

[4] = test system: horse bots (Gastrophylus larvas); test: therapeutic dose / therapeutic index against horse bots; format: in vivo, Gastrophylus species (in horses); details: for Therapeutic index (selectivity): quotient of toxic (rat LD50) and therapeutic dose (horse bots)
Procedure: One of the most important characteristics of the pharmaceutical compositions is the quotient of toxic and therapeutic dosage, the so-called therapeutic index characterizing the security of use. The higher is this value, the smaller is the risk in use, the selective is the active ingredient.
On the basis of the results of the laboratory examinations and toxicity data the therapeutic dose usable for treating bot infection of horses was determined in field trials.
as §4

[5] = test system: rats; test: acute per os toxicity (LD50), measured on rats; format: in vivo, rat
Source text: as §4

[6] = test system: horses; details: horses (Vet. Med., 1985, Apr., p. 68); cited from earlier work
[7] = 100 ppm total active ingredient
[8] = 200 ppm total active ingredient

Row | Molecule | number of hatched imagos (from 120 L3) ([1]; 1 ppm total active ingredient) | number of hatched imagos (from 120 L3) ([1]; 5 ppm total active ingredient) | number of hatched imagos (from 120 L3) ([1]; 10 ppm total active ingredient) | number of hatched imagos (from 120 L3) ([1]; 50 ppm total active ingredient) | number of hatched imagos (from 120 L3) [1, 7] | number of hatched imagos (from 120 L3) [1, 8] | average body mass ([2]; 5 ppm total active ingredient) | hatching % ([2]; 5 ppm total active ingredient) | average body mass ([2]; 10 ppm total active ingredient) | hatching % ([2]; 10 ppm total active ingredient) | LD50 [3] | Therapeutic index (selectivity) [4] | Toxicity acute per os LD50 [5] | Therapeutic dose ([4]; against horse bots, per os) | side effects accompanying treatment [6]
1 | CCCSc1ccc2nc(NC(=O)OC)[nH]c2c1 [Albendazole, 5(6)-propylthio-benzimidazole-N-methylcarbamate] | 111 | 113 | 107 | 112 | 107 | 109 | 18.3 | 100% | 17.8 | 100% | – | – | – | – | –
2 | CC1(C)[C@H](C=C(Cl)Cl)[C@H]1C(=O)O[C@H](C#N)c1cccc(Oc2ccccc2)c1 (relative stereo) [Transmix, α-cyano-3-(2,2-dichlorovinyl)-2,2-dimethyl-cyclopropan-carboxylic acid-3-phenoxybenzylester] | 108 | 112 | 89 | 64 | 39 | 18 | 12.9 | 98% | 9.6 | 84% | 5000 mg/kg | 2500 | – | – | –
3 | COP(=O)(OC)OC=C(Cl)Cl [Dichlorvos, 2,2-dichlorovinyl-phosphonic acid dimethylester] | – | – | – | – | – | – | – | – | – | – | 56 mg/kg | 11 | – | – | –
4 | dihydro-avermectine B1 [Ivermectine] | – | – | – | – | – | – | – | – | – | – | – | – | 10 mg/kg | 0.2 mg/kg | –
5 | COP(=O)(OC)C(O)C(Cl)(Cl)Cl (stereo not drawn) [Trichlorfon, 2,2,2-trichloro-1-hydroxyethyl-phosphonic acid dimethylester] | – | – | – | – | – | – | – | – | – | – | 450 mg/kg | 15 | – | – | diarrhoea, frequent defecation and urination
6 | CC1(C)C(C=C(Cl)Cl)C1C(=O)OC(C#N)c1cccc(Oc2ccccc2)c1 (stereo not drawn) [Chinmix, α-cyano-3-(2,2-dichlorovinyl)-2,2-dimethyl-cyclopropan-carboxylic acid-3-phenoxybenzylester] | 90 | 62 | 47 | 27 | 4 | 0 | 10.3 | 53% | 7.8 | 41% | – | – | – | – | –
